Measured values as given in PubChem BioAssay AID2060891 (Molecular Pharmacology Branch, DTP, NCI, 2025).

Test system: K98450-129-R-PDC complex spheroid growth, percent test/control
Assay: Anticancer human tumor K98450-129-R-PDC patient-derived colon adenocarcinoma cell line growth inhibition [RAS]
Settings: for IC50: curve of first compound; for viability, T/C: stronger effect = lower value
Text: RAS pathway inhibitors in Combinations in Complex Spheroids
A high-throughput screen of multi-cell type tumor spheroids was designed to identify active combinations of RAS pathway inhibitors and targeted small molecules. Complex spheroids include a stromal component modeled by human endothelial cells (HUVEC) and fibroblasts modeled by human mesenchymal stem cells (MSCs). The concentration ranges selected for each drug and investigational agent were based upon clinically achievable concentrations if the clinical Cmax of the agent was known.
Compounds. The drugs and investigational agents: abemaciclib (NSC768073), cobimetinib (NSC768068), divarasib (GDC6063, NSC841802), docetaxel (NSC628503), GDC-1971 (RLY-1971, NSC841576), gemcitabine (NSC613327), inavolisib (NSC800729), ipatasertib (NSC767898), KB-0742 (NSC834161), MRTX-1133 (NSC836407), osimertinib (NSC779217), RMC-4630 (NSC839698), RMC-6236 (NSC851965), RMC-6291 (NSC852671), Ro-3306 (NSC812927), sapanisertib (NSC764658), SN-38 (NSC673596), staurosporine (NSC755774), SY5609 (NSC837396), and tovorafenib (DAY101, NSC766906), were obtained from the National Cancer Institute (NCI) Developmental Therapeutics Program Chemical Repository. The FDA-approved anticancer drug set is available from the NCI Developmental Therapeutics Program. […] The stock solutions were prepared in dimethyl sulfoxide (DMSO, Sigma-Aldrich, St. Louis, MO, cat. D2650) at 800-fold the tested concentration and stored at -70 degrees C prior to their use. All drugs and investigational agents were tested over a range starting from a high concentration at or near the clinical Cmax and decreasing in half-log increments. If the clinical Cmax for an agent had not been determined, the highest concentration tested was 10 microM.
Cell Culture. All cells were maintained in an incubator at 37 degrees C and 5% CO2 with 95% humidity. The PDC lines were cultured according to standard operating procedures established by the NCI PDMR. All PDCs were thawed and cultured in Matrigel-coated flasks prepared with a working solution of 1X Ham's F-12 nutrient mix, without supplementation (Invitrogen, Waltham, MA, cat. 11765054), 100 U/mL penicillin-streptomycin (Invitrogen, cat. 15140122), and 2.5% Matrigel (Corning Inc., Corning, NY, cat. 354248) for the first three passages. The 362531-283-R-J2-PDC and 782815-120-R-J1-PDC lines were cultured in 6C/Colon 1B media, which includes advanced DMEM/F-12 (Thermo Fisher Scientific, cat. 12634028), 10 mM HEPES (Thermo Fisher Scientific, cat. 15630080), 1X GlutaMAX supplement (Thermo Fisher Scientific, cat. 35050061), 0.1 mg/mL primocin (InvivoGen, San Diego, CA, cat. ant-pm-2), 10% defined fetal bovine serum, heat inactivated (HyClone Laboratories Inc., Logan, UT, cat. SH30070.03HI), 50% L-WRN conditioned media (ATCC, cat. CRL-3276), 1.25 mM N-Acetyl-L-cysteine (Sigma-Aldrich, cat. A9165), 10 mM nicotinamide (Sigma-Aldrich, cat. N0636), 1X B-27 supplement (Thermo Fisher Scientific, cat. 17504044), 1X N-2 supplement (Thermo Fisher Scientific, cat. 17502048), 50 ng/mL human EGF (Thermo Fisher Scientific, cat. PHG0311), and 10 microM Y-27632 dihydrochloride (Tocris Bioscience, cat. 1254). The K12877-001-R-J1-PDC line was cultured in 6I media, which includes all 6C/Colon 1B media plus 10 ng/mL human FGF-10 (PeproTech, cat. 100-26), 1 ng/mL human FGF-2 (PeproTech, cat. 100-18B), 1 µM prostaglandin E2 (Tocris Bioscience, cat. 2296), […] hydrocortisone (Sigma-Aldrich, cat. H4001), and […] bovine insulin (Sigma-Aldrich, cat. I6634). The K86415-001-R-J1-PDC line was cultured in 6D media, which includes all 6C/Colon 1B media components minus the L-WRN conditioned media. The 485176-168-R4-J1-PDC was cultured in PANC media, which includes all 6C/Colon 1B media plus 100 ng/mL human FGF-10 (PeproTech, cat. 100-26), 500 nM SB-431542 (Selleckchem, cat. S1067), and 10 nM gastrin (Tocris Bioscience, cat. 3006). […]

[1] = second compound 0.0316 µM, first compound 0.0316 µM
[2] = second compound 0.0316 µM, first compound 0.1 µM
[3] = second compound 0.0316 µM, first compound 0.316 µM
[4] = second compound 0.0316 µM, first compound 1 µM
[5] = second compound 0.0316 µM, first compound 3.16 µM
[6] = second compound 0.0316 µM, first compound 10 µM
[7] = second compound 0.1 µM, first compound 0.0316 µM
[8] = second compound 0.1 µM, first compound 0.1 µM
[9] = second compound 0.1 µM, first compound 0.316 µM
[10] = second compound 0.1 µM, first compound 1 µM
[11] = second compound 0.1 µM, first compound 3.16 µM
[12] = second compound 0.1 µM, first compound 10 µM
[13] = second compound 0.316 µM, first compound 0.0316 µM
[14] = second compound 0.316 µM, first compound 0.1 µM
[15] = second compound 0.316 µM, first compound 0.316 µM
[16] = second compound 0.316 µM, first compound 1 µM
[17] = second compound 0.316 µM, first compound 3.16 µM
[18] = second compound 0.316 µM, first compound 10 µM
[19] = second compound 1 µM, first compound 0.0316 µM
[20] = second compound 1 µM, first compound 0.1 µM
[21] = second compound 1 µM, first compound 0.316 µM
[22] = second compound 1 µM, first compound 1 µM
[23] = second compound 1 µM, first compound 3.16 µM
[24] = second compound 1 µM, first compound 10 µM
[25] = second compound 3.16 µM, first compound 0.0316 µM
[26] = second compound 3.16 µM, first compound 0.1 µM
[27] = second compound 3.16 µM, first compound 0.316 µM
[28] = second compound 3.16 µM, first compound 1 µM
[29] = second compound 3.16 µM, first compound 3.16 µM
[30] = second compound 3.16 µM, first compound 10 µM
[31] = second compound 10 µM, first compound 0.0316 µM
[32] = second compound 10 µM, first compound 0.1 µM
[33] = second compound 10 µM, first compound 0.316 µM
[34] = second compound 10 µM, first compound 1 µM
[35] = second compound 10 µM, first compound 3.16 µM
[36] = second compound 10 µM, first compound 10 µM
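Further: spheroids exposed to agents for seven days before the viability readout.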
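Wherever viability, T/C is given: luminescence used as a proxy for viable cell amount.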

`CC(C)NCC(C(=O)N1CCN(c2ncnc3c2C(C)CC3O)CC1)c1ccc(Cl)cc1` (centres undefined) + C#Cc1c(F)ccc2cc(O)cc(-c3ncc4c(N5CC6CCC(C5)N6)nc(OCC56CCCN5CC(F)C6)nc4c3F)c12 was tested, and the IC50 (second compound 0.0316 µM) was > 10 µM, the IC50 (second compound 0.1 µM) was > 10 µM and the IC50 (second compound 0.316 µM) was > 10 µM. For the same compound, the IC50 (second compound 1 µM) was > 10 µM, the IC50 (second compound 3.16 µM) was > 10 µM and the IC50 (second compound 10 µM) was > 10 µM. For the same compound, the viability, T/C [1] was 110%, the viability, T/C [2] was 106% and the viability, T/C [3] was 92.9%. The viability, T/C [4] was 99.2%, the viability, T/C [5] was 104% and the viability, T/C [6] was 96.7%. The viability, T/C [7] was 110%, the viability, T/C [8] was 96.9% and the viability, T/C [9] was 106%. For the same compound, the viability, T/C [10] was 98%, the viability, T/C [11] was 113% and the viability, T/C [12] was 103%. For the same compound, the viability, T/C [13] was 105%, the viability, T/C [14] was 96.1% and the viability, T/C [15] was 110%. The viability, T/C [16] was 97.3%, the viability, T/C [17] was 104% and the viability, T/C [18] was 98.6%. The viability, T/C [19] was 99.5%, the viability, T/C [20] was 96.8% and the viability, T/C [21] was 96.1%. The viability, T/C [22] was 95.7%, the viability, T/C [23] was 104% and the viability, T/C [24] was 99.2%. The viability, T/C [25] was 95.7%, the viability, T/C [26] was 86.5% and the viability, T/C [27] was 97.3%. The viability, T/C [28] was 93.8%, the viability, T/C [29] was 98.7% and the viability, T/C [30] was 88.2%. For the same compound, the viability, T/C [31] was 83.9%, the viability, T/C [32] was 82.6% and the viability, T/C [33] was 81.9%. The viability, T/C [34] was 85.9%, the viability, T/C [35] was 91.5% and the viability, T/C [36] was 81.9%.
In the case of `CC(Nc1ccc2c(c1)OCCn1cc(N3C(=O)OCC3C(F)F)nc1-2)C(N)=O` (centres undefined) + C#Cc1c(F)ccc2cc(O)cc(-c3ncc4c(N5CC6CCC(C5)N6)nc(OCC56CCCN5CC(F)C6)nc4c3F)c12, the IC50 (second compound 0.0316 µM) is reported as > 10 µM, the IC50 (second compound 0.1 µM) is reported as > 10 µM and the IC50 (second compound 0.316 µM) is reported as > 10 µM. For the same compound, the IC50 (second compound 1 µM) was > 10 µM, the IC50 (second compound 3.16 µM) was > 10 µM and the IC50 (second compound 10 µM) was > 10 µM. For the same compound, the viability, T/C [1] was 105%, the viability, T/C [2] was 94.6% and the viability, T/C [3] was 95.1%. For the same compound, the viability, T/C [4] was 94.4%, the viability, T/C [5] was 83.6% and the viability, T/C [6] was 73.8%. The viability, T/C [7] was 102%, the viability, T/C [8] was 98.1% and the viability, T/C [9] was 88.3%. For the same compound, the viability, T/C [10] was 95.1%, the viability, T/C [11] was 83% and the viability, T/C [12] was 70.4%. The viability, T/C [13] was 114%, the viability, T/C [14] was 98.1% and the viability, T/C [15] was 95.7%. For the same compound, the viability, T/C [16] was 91.1%, the viability, T/C [17] was 84.3% and the viability, T/C [18] was 72.1%. The viability, T/C [19] was 102%, the viability, T/C [20] was 103% and the viability, T/C [21] was 94.8%. The viability, T/C [22] was 84%, the viability, T/C [23] was 81.8% and the viability, T/C [24] was 64.3%. For the same compound, the viability, T/C [25] was 89.8%, the viability, T/C [26] was 93.3% and the viability, T/C [27] was 88.4%. The viability, T/C [28] was 74.2%, the viability, T/C [29] was 72.5% and the viability, T/C [30] was 68.4%. For the same compound, the viability, T/C [31] was 80.5%, the viability, T/C [32] was 83.5% and the viability, T/C [33] was 82.2%. It also gave a viability, T/C [34] of 68.1%, a viability, T/C [35] of 64.8% and a viability, T/C [36] of 57.3%.
